target: T1, wild-type human ALK (cytoplasmic domain, amino acids 1058-1620, N-terminal GST fusion) (Homo sapiens, UniProt Q9UM73); experiment: ALK Inhibition in Enzyme Assay (Lance TR-FRET kinase assay); assay type: biochemical
T1 construct: The cytoplasmic domain (amino acids 1058-1620) of wild-type human ALK; GST (N); made in house; host or cells: SF9 insect cells
Protocol: ALK Inhibition in Enzyme Assay
Kinase activity of the purified protein was assessed using a Lance® TR-FRET assay. […] The reaction was allowed to proceed for 90 minutes at room temperature and was then terminated with 20 mM EDTA in 50 mM Tris (pH 7.5), 100 mM NaCl, 0.05% BSA, and 0.1% Tween-20. Phosphorylation of the peptide substrate was detected using the Lance® detection reagents streptavidin-allophycocyanin (SA-APC) and Eu-W1024 anti-phosphotyrosine antibody (PT66) from Perkin Elmer Life Sciences (Waltham, Mass.). The plates were read on a RUBY star plate reader (BMG LABTECH, Cary, N.C.) with an excitation wavelength of 320 nm.

T1 sequence (Q9UM73 1058-1620): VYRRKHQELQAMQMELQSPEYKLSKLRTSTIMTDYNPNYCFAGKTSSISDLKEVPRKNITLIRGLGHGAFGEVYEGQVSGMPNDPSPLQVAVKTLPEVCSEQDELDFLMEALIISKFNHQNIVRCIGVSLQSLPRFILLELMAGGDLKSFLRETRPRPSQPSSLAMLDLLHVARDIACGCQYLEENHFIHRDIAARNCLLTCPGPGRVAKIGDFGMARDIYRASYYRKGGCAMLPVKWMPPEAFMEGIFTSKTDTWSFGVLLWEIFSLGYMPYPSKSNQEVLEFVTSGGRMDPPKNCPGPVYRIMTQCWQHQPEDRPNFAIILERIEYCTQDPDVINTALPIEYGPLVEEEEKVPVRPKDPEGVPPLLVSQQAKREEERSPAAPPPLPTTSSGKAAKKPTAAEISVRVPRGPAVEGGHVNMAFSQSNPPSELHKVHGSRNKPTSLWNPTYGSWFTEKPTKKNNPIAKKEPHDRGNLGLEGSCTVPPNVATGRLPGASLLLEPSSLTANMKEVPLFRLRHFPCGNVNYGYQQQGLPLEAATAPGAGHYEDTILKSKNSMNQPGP

Row | Compound | IC50
1 | C[C@H]1CN(C(=O)[C@H]2CC[C@@H](n3/c(=N/C(=O)c4ccc(F)cc4)[nH]c4cnc(OCCN5CCCCC5)cc43)CC2)CCN1C(=O)OC(C)(C)C [Example 60, (S)-tert-Butyl 4-(cis-4-((E)-2-(4-fluorobenzoylimino)-6-(2-(piperidin-1-yl)ethoxy)-2,3-dihydro-1H-imidazo[4,5-c]pyridin-1-yl)cyclohexanecarbonyl)-2-methylpiperazine-1-carboxylate] | 1000 to 5000 nM
2 | C[C@H]1CN(C(=O)[C@H]2CC[C@@H](n3/c(=N/C(=O)c4ccccc4)[nH]c4cnc(OCCN5CCCCC5)cc43)CC2)CCN1 [Example 62] | 50 to 100 nM
3 | CC(C)(C)OC(=O)N1CCC(n2/c(=N/C(=O)c3ccccc3)[nH]c3cnc(OCCN4CCCCC4)cc32)CC1 [Example 64, (E)-tert-Butyl 4-(2-(benzoylimino)-6-(2-(piperidin-1-yl)ethoxy)-2,3-dihydro-1H-imidazo[4,5-c]pyridin-1-yl)piperidine-1-carboxylate] | 100 to 1000 nM
4 | CCS(=O)(=O)N1CCC(n2/c(=N/C(=O)c3ccccc3)[nH]c3cnc(OCCN4CCCCC4)cc32)CC1 [Example 66, (E)-N-(1-(1-(Ethylsulfonyl)piperidin-4-yl)-6-(2-(piperidin-1-yl)ethoxy)-1H-imidazo[4,5-c]pyridin-2(3H)-ylidene)benzamide] | 100 to 1000 nM
5 | CC(C)CN1CCC(n2/c(=N/C(=O)c3ccccc3)[nH]c3cnc(OCCN4CCCCC4)cc32)CC1 [Example 68, (E)-N-(1-(1-Isobutylpiperidin-4-yl)-6-(2-(piperidin-1-yl)ethoxy)-1H-imidazo[4,5-c]pyridin-2(3H)-ylidene)benzamide] | 5000 to 10000 nM
6 | CC(=O)[C@H]1CC[C@@H](n2/c(=N/C(=O)c3cccc(F)c3)[nH]c3ccc(CN4CCC(C(C)(C)O)CC4)cc32)CC1 [Example 71, (E)-N-(1-(cis-4-Acetylcyclohexyl)-6-((4-(2-hydroxypropan-2-yl)piperidin-1-yl)methyl)-1H-benzo[d]imidazol-2(3H)-ylidene)-3-fluorobenzamide] | 100 to 1000 nM
7 | Cc1n[nH]c([C@H]2CC[C@@H](n3/c(=N/C(=O)c4cccc(F)c4)[nH]c4ccc(CN5CCC(C(C)(C)O)CC5)cc43)CC2)n1 [Example 74, (E)-3-Fluoro-N-(6-((4-(2-hydroxypropan-2-yl)piperidin-1-yl)methyl)-1-(cis-4-(3-methyl-1H-1,2,4-triazol-5-yl)cyclohexyl)-1H-benzo[d]imidazol-2(3H)-ylidene)benzamide] | < 50 nM
8 | CN(CC(=O)N1CCC(n2/c(=N/C(=O)c3ccccc3)[nH]c3cnc(OCCN4CCCCC4)cc32)CC1)C(=O)OC(C)(C)C [Example 76, (E)-tert-Butyl 2-(4-(2-(benzoylimino)-6-(2-(piperidin-1-yl)ethoxy)-2,3-dihydro-1H-imidazo[4,5-c]pyridin-1-yl)piperidin-1-yl)-2-oxoethyl(methyl)carbamate] | 1000 to 5000 nM
9 | CCOC(=O)[C@H]1CC[C@@H](n2/c(=N/C(=O)c3cccc(F)c3)[nH]c3cnc(OCCN4CCC(C(C)(C)O)CC4)cc32)CC1 [Example 78, cis-Ethyl 4-((E)-2-(3-fluorobenzoylimino)-6-(2-(4-(2-hydroxypropan-2-yl)piperidin-1-yl)ethoxy)-2,3-dihydro-1H-imidazo[4,5-c]pyridin-1-yl)cyclohexanecarboxylate] | < 50 nM
10 | CC(C)(O)C1CCN(CCOc2cc3c(cn2)[nH]/c(=N\C(=O)c2cccc(F)c2)n3[C@H]2CC[C@@H](C(=O)O)CC2)CC1 [Example 79, cis-4-((E)-2-(3-Fluorobenzoylimino)-6-(2-(4-(2-hydroxypropan-2-yl)piperidin-1-yl)ethoxy)-2,3-dihydro-1H-imidazo[4,5-c]pyridin-1-yl)cyclohexanecarboxylic acid] | 1000 to 5000 nM
11 | CC(C)(O)C1CCN(CCOc2cc3c(cn2)[nH]/c(=N\C(=O)c2cccc(F)c2)n3[C@H]2CC[C@@H](C(=O)N3CC(F)(F)C3)CC2)CC1 [Example 80, (E)-N-(1-(cis-4-(3,3-Difluoroazetidine-1-carbonyl)cyclohexyl)-6-(2-(4-(2-hydroxypropan-2-yl)piperidin-1-yl)ethoxy)-1H-imidazo[4,5-c]pyridin-2(3H)-ylidene)-3-fluorobenzamide] | < 50 nM
12 | COC(=O)[C@H]1CC[C@@H](n2/c(=N/C(=O)c3ccc(F)cc3)[nH]c3ccc(CN4CCOCC4)cc32)CC1 [Example 85, cis-Methyl 4-((E)-2-(4-fluorobenzoylimino)-6-(morpholinomethyl)-2,3-dihydro-1H-benzo[d]imidazol-1-yl)cyclohexanecarboxylate] | < 50 nM
13 | CC(C)NC(=O)[C@H]1CC[C@@H](n2/c(=N/C(=O)c3cncs3)[nH]c3cnc(OCCN4CCCCC4)cc32)CC1 [Example 88, (E)-N-(1-(cis-4-(Isopropylcarbamoyl)cyclohexyl)-6-(2-(piperidin-1-yl)ethoxy)-1H-imidazo[4,5-c]pyridin-2(3H)-ylidene)thiazole-5-carboxamide] | 50 to 100 nM

Now from value to compound:

Row | IC50 | Compound
14 | < 50 nM | C[C@@H]1CNCCN1C(=O)[C@H]1CC[C@@H](n2/c(=N/C(=O)c3ccc(F)cc3)[nH]c3cnc(OCCN4CCCCC4)cc32)CC1 [Example 59, (E)-4-Fluoro-N-(1-(cis-4-((R)-2-methylpiperazine-1-carbonyl)cyclohexyl)-6-(2-(piperidin-1-yl)ethoxy)-1H-imidazo[4,5-c]pyridin-2(3H)-ylidene)benzamide]
15 | < 50 nM | C[C@H]1CN(C(=O)[C@H]2CC[C@@H](n3/c(=N/C(=O)c4ccc(F)cc4)[nH]c4cnc(OCCN5CCCCC5)cc43)CC2)CCN1 [Example 61, (E)-4-Fluoro-N-(1-(cis-4-((S)-3-methylpiperazine-1-carbonyl)cyclohexyl)-6-(2-(piperidin-1-yl)ethoxy)-1H-imidazo[4,5-c]pyridin-2(3H)-ylidene)benzamide]
16 | 50 to 100 nM | CC(C)NC(=O)[C@]1(O)CC[C@H](n2/c(=N/C(=O)c3ccc(F)cc3)[nH]c3cnc(OCCN4CCCCC4)cc32)CC1 [Example 63, (E)-4-Fluoro-N-(1-(trans-4-hydroxy-4-(isopropylcarbamoyl)cyclohexyl)-6-(2-(piperidin-1-yl)ethoxy)-1H-imidazo[4,5-c]pyridin-2(3H)-ylidene)benzamide]
17 | 1000 to 5000 nM | O=C(/N=c1\[nH]c2cnc(OCCN3CCCCC3)cc2n1C1CCNCC1)c1ccccc1 [Example 65, (E)-N-(6-(2-(Piperidin-1-yl)ethoxy)-1-(piperidin-4-yl)-1H-imidazo[4,5-c]pyridin-2(3H)-ylidene)benzamide]
18 | 100 to 1000 nM | CNS(=O)(=O)N1CCC(n2/c(=N/C(=O)c3ccccc3)[nH]c3cnc(OCCN4CCCCC4)cc32)CC1 [Example 67, (E)-N-(1-(1-(N-Methylsulfamoyl)piperidin-4-yl)-6-(2-(piperidin-1-yl)ethoxy)-1H-imidazo[4,5-c]pyridin-2(3H)-ylidene)benzamide]
19 | 100 to 1000 nM | CC(C)S(=O)(=O)N1CCC(n2/c(=N/C(=O)c3ccccc3)[nH]c3cnc(OCCN4CCCCC4)cc32)CC1 [Example 69, (E)-N-(1-(1-(Isopropylsulfonyl)piperidin-4-yl)-6-(2-(piperidin-1-yl)ethoxy)-1H-imidazo[4,5-c]pyridin-2(3H)-ylidene)benzamide]
20 | < 50 nM | CC(C)NC(C)[C@H]1CC[C@@H](n2/c(=N/C(=O)c3cccc(F)c3)[nH]c3ccc(CN4CCC(C(C)(C)O)CC4)cc32)CC1 (stereo partly drawn) [Example 72, (E)-3-Fluoro-N-(6-((4-(2-hydroxypropan-2-yl)piperidin-1-yl)methyl)-1-(cis-4-(1-(isopropylamino)ethyl)cyclohexyl)-1H-benzo[d]imidazol-2(3H)-ylidene)benzamide]
21 | 100 to 1000 nM | Cc1n[nH]c([C@H]2CC[C@@H](n3/c(=N/C(=O)c4cccc(F)c4)[nH]c4ccc(CO)cc43)CC2)n1 [Example 73, (E)-3-Fluoro-N-(6-(hydroxymethyl)-1-(cis-4-(3-methyl-1H-1,2,4-triazol-5-yl)cyclohexyl)-1H-benzo[d]imidazol-2(3H)-ylidene)benzamide]
22 | 100 to 1000 nM | CNCC(=O)N1CCC(n2/c(=N/C(=O)c3ccccc3)[nH]c3cnc(OCCN4CCCCC4)cc32)CC1 [Example 75, (E)-N-(1-(1-(2-(Methylamino)acetyl)piperidin-4-yl)-6-(2-(piperidin-1-yl)ethoxy)-1H-imidazo[4,5-c]pyridin-2(3H)-ylidene)benzamide]
23 | < 50 nM | CCOC(=O)[C@H]1CC[C@@H](n2/c(=N/C(=O)c3cccc(F)c3)[nH]c3cnc(OCCO)cc32)CC1 [Example 77, cis-Ethyl 4-((E)-2-(3-fluorobenzoylimino)-6-(2-hydroxyethoxy)-2,3-dihydro-1H-imidazo[4,5-c]pyridin-1-yl)cyclohexanecarboxylate]
24 | 100 to 1000 nM | CC(C)(O)C1CCN(CCOc2cc3c(cn2)[nH]/c(=N\C(=O)c2cccc(F)c2)n3[C@H]2CC[C@@H](C(=O)N3CC(O)C3)CC2)CC1 [Example 81, (E)-3-Fluoro-N-(1-(cis-4-(3-hydroxyazetidine-1-carbonyl)cyclohexyl)-6-(2-(4-(2-hydroxypropan-2-yl)piperidin-1-yl)ethoxy)-1H-imidazo[4,5-c]pyridin-2(3H)-ylidene)benzamide]
25 | 5000 to 10000 nM | CC(C)NC(=O)[C@H]1CC[C@@H](n2c(N)nc3cnc(OCCN4CCCCC4)cc32)CC1 [Example 86, cis-4-(2-Amino-6-(2-(piperidin-1-yl)ethoxy)-1H-imidazo[4,5-c]pyridin-1-yl)-N-isopropylcyclohexanecarboxamide]
26 | 50 to 100 nM | CC(C)NC(=O)[C@H]1CC[C@@H](n2/c(=N/C(=O)c3ccc4ccsc4c3)[nH]c3cnc(OCCN4CCCCC4)cc32)CC1 [Example 87, (E)-N-(1-(cis-4-(Isopropylcarbamoyl)cyclohexyl)-6-(2-(piperidin-1-yl)ethoxy)-1H-imidazo[4,5-c]pyridin-2(3H)-ylidene)benzo[b]thiophene-6-carboxamide]

From patent US9115127B2 (AMGEN INC., priority 2010, dated 2015)
